Patent US20220233743A1, “WOUND CLOSURE ENHANCEMENT METHODS AND MATERIALS VIA MANIPULATION OR AUGMENTATION OF LIPIN-1” (Board of Supervisors of Louisiana State University and …, priority 2019, published 2022)

Tested on: BMDMs
Experiment: OCR in response to AC with and without etomoxir, Seahorse
Type: cell-based, mouse
Conditions: for OCR in response to AC with pretreatment of etomoxir: 40 μM etomoxir 15 min, then AC 4:1
Experimental: Thymocytes (Jurkats) were subjected to UV light for 20 min in a 10-cm dish in sterile PBS. Cells were collected, and media was changed to D10 media followed by a 2-h incubation at 37° C. to allow for cells to become apoptotic. Cells were collected and centrifuged at 400×g for 5 min. Cells were resuspended in 2×10^−6 M PKH26 for 3 min. Staining was stopped by adding equivalent volumes of FBS.
BMDMs collected from lipin-1^mEnzyKO, lipin-1^mKO, and littermate control mice were seeded at a density of 150,000 cells per well on XF24 cell culture microplates and allowed to incubate for 4 h. Experiments were conducted in XF assay medium containing 25 mM glucose, 2 mM 1-glutamine, and 1 mM sodium pyruvate and analyzed using a Seahorse XFe 24 extracellular flux analyzer (Agilent Technologies). Where indicated, the following were injected: ATP-synthesis inhibitor oligomycin (Oligo; 1 μM), carbonyl cyanide 4-(trifluoromethoxy)phenylhydrazone (FCCP) (2 μM) to uncouple ATP synthesis, rotenone (100 nM) to block complex I, and antimycin A (1 μM) (Sigma-Aldrich) to block complex III. Oxygen consumption rate (OCR) was analyzed using Wave Desktop software (Agilent Technologies).
The inventors have shown that lipin-1 is required for increased OCR in response to free fatty acids, but the inventors wanted to know if lipin-1 regulates β-oxidation in response to AC during efferocytosis. BMDMs from WT, lipin-1^mEnzyKO, and lipin-1^mKO mice were either pretreated with or without etomoxir to prevent fatty acid transport into the mitochondria followed by the addition of AC to the macrophages at an AC/BMDM ratio of 4:1. AC were incubated with BMDMs for 30 min prior to the start of Seahorse analysis. […] Etomoxir treatment of unstimulated (no AC) WT, lipin-1 EKO, and lipin-1 KO macrophages allowed the inventors to determine basal lipid use.

SMILES: CCOC(=O)[C@@]1(CCCCCCOc2ccc(Cl)cc2)CO1 [etomoxir]
- OCR in response to AC with pretreatment of etomoxir (WT macrophages): significant reduction
- OCR in response to AC with pretreatment of etomoxir (lipin-1 EKO macrophages): significant reduction
- OCR in response to AC with pretreatment of etomoxir (lipin-1 KO macrophages): no significant difference in OCR
- OCR with etomoxir alone (basal lipid use) (unstimulated (no AC) WT macrophages): significant reduction in OCR
- OCR with etomoxir alone (basal lipid use) (unstimulated (no AC) lipin-1 EKO macrophages): significant reduction in OCR
- OCR with etomoxir alone (basal lipid use) (unstimulated (no AC) lipin-1 KO macrophages): significant reduction in OCR
